Experimental data reported in ChEMBL document CHEMBL2375234, “Rhazinilam-Leuconolam-Leuconoxine Alkaloids from Leuconotis griffithii” (J Nat Prod, 2013).
In brackets after ≈: the same amount, converted by molar mass.

Legend:
[1] = Inhibition of p-gp in multidrug-resistant human KB cells assessed as increase in vincristine-mediated cytotoxicity; type: cell-based
KB = experiment: Cytotoxicity against human KB cells; type: functional, cell-based

| Structure (SMILES) | IC50 [1] | IC50 (KB) |
| --- | --- | --- |
| CC[C@@]12CCCN3CC[C@@]4(O)c5ccccc5N(C(=O)CC1)C324 (some centres undefined) | 9.34 µg/mL (≈ 29.9 µM) |  |
| CC[C@@]12CCCN3CC[C@H]4c5ccccc5N(C(=O)CC1)C432 (some centres undefined) |  | 12 µg/mL (≈ 40.5 µM) |
| CC[C@@]12CCCN3C(=O)C[C@@]4(O)c5ccccc5N(C(=O)CC1)C324 (some centres undefined) |  | 12 µg/mL (≈ 36.8 µM) |
| CC[C@@]12CCC(=O)Nc3ccccc3-c3ccn(c31)C(=O)C2 [NOR-RHAZINICINE] |  | 12 µg/mL (≈ 40.8 µM) |
